Reference: US11253593B2, “Granulated anthelmintic preparations and delivery systems” (Argenta Innovation Limited, priority 2009, dated 2022)
Where two headings read alike, the source gives them in different places.

Tests used:
[1] = Stability trial post mix of reconstituted abamectin liquid concentrate; assay type: physicochemical
Experimental: The stability of the reconstituted abamectin was investigated after storage at 20-25° C. for 4 days.

in vivo = test: in vivo
Experimental: A cross-over study was performed to determine the blood plasma concentrations of abamectin, oxfendazole and levamisole following oral treatment with reconstituted granule product containing these three anthelmintics.
Eight female romney sheep of similar age and body weight were used. The criteria for selection was to include animals that had not been dosed with a persistent anthelmintic formulation within 6 months of selection for the trial. Persistent anthelmintics include slow release capsules (e.g. Bionic), injectable or oral forms of moxidectin and closantel. Sheep were acclimated to the study site for 14 days before treatment.
Each sheep was randomly assigned to the treatment group and received one treatment and then the alternate treatment 21 days later.
The study procedures were as follows: • sheep were weighed using calibrated scales on Day −1 for weight ranking and allocation to treatment groups. […] Granules were weighed and added with the calculated volume of water to a 2 litre schott bottle and inverted a number of times until the granules were wetted and fully dispersed. On the morning of treatment the schott bottle was again gently inverted 3 or 4 times to ensure a homogeneous mix and approximately 100 mL was decanted from which the syringe was filled for dosing. • Treatments were administered on Day 0 and Day 21 at a dose volume of 1 ml/5 kg. Dosing was done using a 12 mL graduated syringe. Dose volume and time of administration was recorded and checked for each sheep. • Blood samples were collected before treatment, and after treatment at 0.5, 1, 2, 6, 8, 12, 15, 24 and 36 hrs.
Oxfendazole plasma levels are presented as two separate plasma metabolites: oxfendazole and fenbendazole, and the total of these two expressed as “total-oxfendazole”. All plasma metabolite units are presented as mg/kg

[2] = Chemical and physical stability of abamectin in reconstituted triple active formulation; assay type: physicochemical; conditions: reconstituted with water, triple active formulation 6.1; storage at 30 and 40° C. for 1 month
Experimental: When reconstituted with water, the sstability of abamectin in the reconstituted triple active formulation was investigated after storage at 30 and 40° C. for 1 month.

[3] = In-use stability, physico-chemical, of reconstituted dual active drug product; conditions: reconstituted drug product of 4.1; storage at 30 and 40° C. for 1 month
Experimental: The stability of reconstituted drug product was investigated after storage at 30 and 40° C. for 1 month.

[4] = In-use suspendability of reconstituted granule (oxfendazole as marker); assay type: physicochemical; conditions: reconstituted granule of 4.1 in water 1.1 kg/5 L
Experimental: The concentration of the reconstituted granule in water was 1.1 kg/5 L. Oxfendazole was chosen as a marker compound for drug suspension stability.
(Levamisole Fully Soluble)
2 h: At the top was 96 mg/g and at the bottom was 105.2 mg/g
4 h: At the top was 98 mg/g and at the bottom was 99 mg/g
4 days: At the top was 95.7 mg/g and at the bottom was 98 mg/g

[5] = female, Romney, sheep, in vivo, po
[6] = oral 1 ml/5 kg, pooled mean of 8 sheep, oxfendazole comparison
[7] = oral 1 ml/5 kg, pooled mean of 8 sheep, total oxfendazole comparison

OCc1ccccc1 [benzyl alcohol]
Degradation after reconstitution [1]: some degradation

COC(=O)Nc1nc2ccc(Sc3ccccc3)cc2[nH]1 [fenbendazole]
Tmax, plasma fenbendazole (metabolite) (in vivo; [5]): 12 h | Cmax, plasma fenbendazole (metabolite) (in vivo; sheep, in vivo, po): 0.209 mg/kg

abamectin
Degradation after reconstitution ([1]; reconstituted liquid concentrate of Example 9, storage at 20-25° C. for 4 days): no degradation | Tmax, plasma abamectin (in vivo; oral 1 ml/5 kg, pooled mean of 8 sheep, abamectin comparison): 24 h | Cmax, plasma abamectin (in vivo; oral 1 ml/5 kg, pooled mean of 8 sheep, both cross-over phases, abamectin comparison): 0.017 mg/kg | Degradation of abamectin [2]: less than 2%

COC(=O)Nc1nc2cc([S+]([O-])c3ccccc3)ccc2[nH]1 (stereo not shown) [oxfendazole]
Chemical degradation [3]: no chemical degradation | Oxfendazole concentration at the bottom ([4]; 2 h): 105.2 mg/g | Oxfendazole concentration at the top ([4]; 2 h): 96 mg/g | Oxfendazole concentration at the bottom ([4]; 4 h): 99 mg/g | Oxfendazole concentration at the top ([4]; 4 h): 98 mg/g | Oxfendazole concentration at the bottom ([4]; 4 days): 98 mg/g | Oxfendazole concentration at the top ([4]; 4 days): 95.7 mg/g | Oxfendazole concentration, initial ([4]; initial): 100 mg/g | Cmax, plasma oxfendazole (in vivo; [6]): 0.792 mg/kg | Tmax, plasma oxfendazole (in vivo; [6]): 15 h | Cmax, plasma total oxfendazole (oxfendazole + fenbendazole) (in vivo; [7]): 0.984 mg/kg | Tmax, plasma total oxfendazole (oxfendazole + fenbendazole) (in vivo; [7]): 12 h

c1ccc([C@H]2CN3CCSC3=N2)cc1 [levamisole]
Chemical degradation [3]: less than 2% | Tmax (in vivo; [5]): 1 h | Cmax, plasma levamisole (in vivo; sheep, in vivo, po): 1.445 mg/kg
